How the values were obtained:
[1] = system: epididymal adipose tissue and tibial skeletal muscle of WT mice; test: mRNA expression of energy metabolism genes in tissues after ip administration (qPCR); type: in vivo, mouse; settings: 600 µg/kg ip
Protocol: Real-time PCR (qPCR) experiments were performed to evaluate the mRNA expression levels, at basal and under stimulus, for peroxisome proliferator activator receptor gamma (PPARγ), peroxisome proliferator activator receptor alpha (PPARa), cAMP responsive element binding protein 1 (Creb1), aldolase A, fructose-bisphosphate (ALDOA), cytochrome c oxidase subunit IV isoform 1 (Cox4i1), phosphoglycerate mutase 2 (PGAM2), troponin I, skeletal, fast 2 (TNNI2), […] (TNNT3), small muscle protein X-linked (SMPX), myosin, […] (MYH1), insulin-growth factor 1 (IGF1), Glucose transporter 4 (GLUT4), and lipoprotein lipase (LPL). Primers sequences are described in Supplementary Materials (Table S1). […] Quantitative PCRs were performed using the Prism 7900 sequence detection system (Applied Biosystems, Foster City, CA, USA) with 100 nM primer and 20 ng cDNA. The expression of mRNA targets was normalized by expression of gene glyceraldehyde 3-phosphate dehydrogenase (GAPDH) or hipoxantina-guanina fosforibosiltransferase (HPRT) and expressed as relative values using the 2 DDCt method. […]
Figure 6 Ric4 stimulated mRNA expression levels of genes related to energy metabolism. WT mice were treated with vehicle (Control) or Ric4 (600 ug/kg, ip) and gene expression was evaluated by qPCR. […]

[2] = in vitro; type: in vitro ADME, mouse; settings: WT mice liver or kidney crude extracts; fragments sequenced by mass spectrometry after HPLC; data not shown
Protocol: Peptide hydrolyses were analyzed by reverse phase liquid chromatography (HPLC) using a C18 µBond-pak column (4.6 × 250 mm; Millipore Corp.) with a linear gradient of 5–65% acetonitrile in 0.1% TFA for 20 min at a flow rate of 1 mL/min, and absorbance monitored at a wavelength of 214 nm, as previously described. Cleaved peptide bonds were identified by mass spectrometry sequencing after isolating the cleavage fragments manually after HPLC, as previously described (data not shown). Control enzyme assays were conducted using bradykinin ([…]; 50 µM) as a standard substrate.

LASVSTVLTSKYR [Ric4, intracellular peptide derived from hemoglobin alpha subunit, last 13 C-terminal amino acids]
GLUT4 mRNA levels in epididymal adipose tissue [1]: increased
expression levels of genes related to energy metabolism in epididymal adipose tissue (LPL, PPARγ, PPARa, GLUT4, IGF1) [1]: stimulated the expression levels
initial enzymatic cleavage site [2]: Leu8-Thr9 peptide bond
